Measurements reported in the kinase profiling compilation of Christmann-Franck et al. (2016).

Key:
Assay in all cases: KINOMEscan competition binding
Conditions in all cases: compound 10.0 µM
EPHB6 (human) = EPHB6 (human) (UniProt O15197)
SRPK2 (human) = SRPK2 (human) (UniProt P78362)
[1] = test system: KIT (human), P10721 [D816H]
[2] = test system: EGFR (human), P00533 [G719C]
CDC2L2 (human) = CDC2L2 (human) (UniProt Q9UQ88)
PAK3 (human) = PAK3 (human) (UniProt O75914)
MAP3K12 (human) = MAP3K12 (human) (UniProt Q12852)
Sequence of MAP3K12 (human) (Q12852 whole entry, looked up): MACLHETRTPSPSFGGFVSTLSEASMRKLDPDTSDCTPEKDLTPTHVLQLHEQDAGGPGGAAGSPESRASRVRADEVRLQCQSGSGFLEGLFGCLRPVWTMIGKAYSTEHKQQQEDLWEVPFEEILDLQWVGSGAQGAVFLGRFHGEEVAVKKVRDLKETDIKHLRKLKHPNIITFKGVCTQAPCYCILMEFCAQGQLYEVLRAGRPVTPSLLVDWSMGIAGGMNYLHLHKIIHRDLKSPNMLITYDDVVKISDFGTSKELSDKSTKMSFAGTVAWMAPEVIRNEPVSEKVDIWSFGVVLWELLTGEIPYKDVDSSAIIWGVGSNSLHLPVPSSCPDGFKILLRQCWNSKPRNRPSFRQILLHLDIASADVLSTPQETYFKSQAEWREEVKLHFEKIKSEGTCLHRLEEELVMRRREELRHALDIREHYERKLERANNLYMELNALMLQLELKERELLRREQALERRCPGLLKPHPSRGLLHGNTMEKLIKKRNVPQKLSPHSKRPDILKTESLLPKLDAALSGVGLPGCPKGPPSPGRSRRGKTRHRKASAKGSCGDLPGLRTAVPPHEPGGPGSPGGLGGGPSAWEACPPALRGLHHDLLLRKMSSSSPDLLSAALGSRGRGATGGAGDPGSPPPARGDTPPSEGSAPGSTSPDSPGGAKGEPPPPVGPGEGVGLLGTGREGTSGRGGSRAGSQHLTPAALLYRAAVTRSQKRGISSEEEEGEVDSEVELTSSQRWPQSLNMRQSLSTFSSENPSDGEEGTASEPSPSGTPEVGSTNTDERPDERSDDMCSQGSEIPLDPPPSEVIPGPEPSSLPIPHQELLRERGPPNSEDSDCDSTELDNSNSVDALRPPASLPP

BRSK1 (human) = BRSK1 (human) (UniProt Q8TDC3)
Sequence of BRSK1 (human) (Q8TDC3 whole entry, looked up): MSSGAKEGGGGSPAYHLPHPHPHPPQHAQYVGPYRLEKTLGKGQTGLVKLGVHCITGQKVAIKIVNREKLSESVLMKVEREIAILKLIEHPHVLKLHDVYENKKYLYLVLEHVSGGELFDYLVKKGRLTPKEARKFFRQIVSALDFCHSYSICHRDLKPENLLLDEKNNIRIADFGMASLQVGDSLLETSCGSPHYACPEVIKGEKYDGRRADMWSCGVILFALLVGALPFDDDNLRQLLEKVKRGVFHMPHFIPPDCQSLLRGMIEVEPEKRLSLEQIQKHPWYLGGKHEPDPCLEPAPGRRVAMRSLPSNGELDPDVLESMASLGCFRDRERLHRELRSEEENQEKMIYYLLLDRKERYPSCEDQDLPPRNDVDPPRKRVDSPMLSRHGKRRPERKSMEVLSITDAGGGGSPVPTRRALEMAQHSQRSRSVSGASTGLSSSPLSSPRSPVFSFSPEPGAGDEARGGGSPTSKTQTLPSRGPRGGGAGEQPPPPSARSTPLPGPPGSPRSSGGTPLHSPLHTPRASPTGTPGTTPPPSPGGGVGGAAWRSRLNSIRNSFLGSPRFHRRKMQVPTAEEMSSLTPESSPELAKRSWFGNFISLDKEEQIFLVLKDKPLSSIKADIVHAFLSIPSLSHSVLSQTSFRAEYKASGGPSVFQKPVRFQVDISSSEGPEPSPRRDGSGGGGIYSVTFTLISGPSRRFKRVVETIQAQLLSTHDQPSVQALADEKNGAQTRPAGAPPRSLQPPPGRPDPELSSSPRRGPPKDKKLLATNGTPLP

STK10 (human) = STK10 (human) (UniProt O94804)
MERTK (human) = MERTK (human) (UniProt Q12866)
EIF2AK2 (human) = EIF2AK2 (human) (UniProt P19525)
MARK1 (human) = MARK1 (human) (UniProt Q9P0L2)
MAPK13 (human) = MAPK13 (human) (UniProt O15264)
Sequence of MAPK13 (human) (O15264 whole entry, looked up): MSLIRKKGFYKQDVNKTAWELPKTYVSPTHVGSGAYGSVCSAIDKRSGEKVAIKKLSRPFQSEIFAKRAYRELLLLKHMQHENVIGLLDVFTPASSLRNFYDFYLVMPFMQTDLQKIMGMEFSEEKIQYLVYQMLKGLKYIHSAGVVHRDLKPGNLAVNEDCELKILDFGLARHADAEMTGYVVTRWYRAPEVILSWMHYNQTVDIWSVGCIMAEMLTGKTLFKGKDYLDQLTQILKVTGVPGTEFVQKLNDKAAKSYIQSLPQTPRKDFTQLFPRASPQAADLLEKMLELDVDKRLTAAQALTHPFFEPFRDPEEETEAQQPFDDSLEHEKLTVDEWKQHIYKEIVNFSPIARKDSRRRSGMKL

PLK4 (human) = PLK4 (human) (UniProt O00444)
FGFR3 (human) = FGFR3 (human) (UniProt P22607)
Sequence of FGFR3 (human) (P22607 whole entry, looked up): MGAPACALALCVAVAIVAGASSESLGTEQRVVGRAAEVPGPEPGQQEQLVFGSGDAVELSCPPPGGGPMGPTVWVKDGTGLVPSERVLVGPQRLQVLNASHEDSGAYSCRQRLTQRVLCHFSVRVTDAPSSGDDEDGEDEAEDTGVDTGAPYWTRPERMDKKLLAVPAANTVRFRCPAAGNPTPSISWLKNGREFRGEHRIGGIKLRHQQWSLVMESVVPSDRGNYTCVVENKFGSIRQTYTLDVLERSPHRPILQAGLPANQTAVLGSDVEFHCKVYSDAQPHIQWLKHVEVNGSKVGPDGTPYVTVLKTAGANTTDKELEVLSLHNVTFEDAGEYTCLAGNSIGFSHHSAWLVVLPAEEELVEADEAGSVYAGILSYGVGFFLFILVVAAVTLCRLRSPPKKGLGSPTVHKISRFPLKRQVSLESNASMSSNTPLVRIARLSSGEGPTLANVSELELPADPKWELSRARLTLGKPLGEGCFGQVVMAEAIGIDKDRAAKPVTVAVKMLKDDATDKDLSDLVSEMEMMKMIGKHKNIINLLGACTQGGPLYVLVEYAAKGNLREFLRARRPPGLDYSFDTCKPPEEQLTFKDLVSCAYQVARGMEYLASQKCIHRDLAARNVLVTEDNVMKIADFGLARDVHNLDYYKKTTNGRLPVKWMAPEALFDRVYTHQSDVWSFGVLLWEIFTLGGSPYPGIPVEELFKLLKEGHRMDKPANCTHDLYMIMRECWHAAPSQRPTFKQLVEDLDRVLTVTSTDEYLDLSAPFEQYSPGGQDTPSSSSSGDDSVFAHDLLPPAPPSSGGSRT

IRAK4 (human) = IRAK4 (human) (UniProt Q9NWZ3)
Sequence of IRAK4 (human) (Q9NWZ3 whole entry, looked up): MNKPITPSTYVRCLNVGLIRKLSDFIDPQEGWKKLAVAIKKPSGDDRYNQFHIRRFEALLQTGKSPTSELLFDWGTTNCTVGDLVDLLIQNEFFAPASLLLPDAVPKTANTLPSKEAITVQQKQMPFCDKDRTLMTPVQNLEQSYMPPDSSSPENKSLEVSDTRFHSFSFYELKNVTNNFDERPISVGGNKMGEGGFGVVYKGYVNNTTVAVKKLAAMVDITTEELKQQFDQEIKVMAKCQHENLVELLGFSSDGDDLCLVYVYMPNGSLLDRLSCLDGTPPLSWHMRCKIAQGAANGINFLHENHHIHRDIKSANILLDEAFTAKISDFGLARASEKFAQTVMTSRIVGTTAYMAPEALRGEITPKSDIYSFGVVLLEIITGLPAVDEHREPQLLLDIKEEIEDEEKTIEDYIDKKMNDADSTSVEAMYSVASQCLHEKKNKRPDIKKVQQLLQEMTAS

STK36 (human) = STK36 (human) (UniProt Q9NRP7)
MAPK4 (human) = MAPK4 (human) (UniProt P31152)
LYN (human) = LYN (human) (UniProt P07948)
BMPR1A (human) = BMPR1A (human) (UniProt P36894)
[3] = test system: BMX (human), P51813 [V600E]
STK17B (human) = STK17B (human) (UniProt O94768)
CDK4 CCND3 (human) = CDK4 CCND3 (human) (UniProt P11802+P30281)
Sequence of CDK4 CCND3 (human) (P11802 whole entry, looked up): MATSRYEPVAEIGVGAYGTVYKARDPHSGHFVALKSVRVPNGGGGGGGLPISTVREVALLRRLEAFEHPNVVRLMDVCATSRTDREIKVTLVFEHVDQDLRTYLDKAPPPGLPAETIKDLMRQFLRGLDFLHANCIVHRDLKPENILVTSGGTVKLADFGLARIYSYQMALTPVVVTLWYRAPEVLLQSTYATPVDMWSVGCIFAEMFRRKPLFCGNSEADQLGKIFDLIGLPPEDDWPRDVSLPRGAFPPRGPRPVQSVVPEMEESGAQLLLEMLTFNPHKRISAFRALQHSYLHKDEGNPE
Sequence of CDK4 CCND3 (human) (P30281 whole entry, looked up): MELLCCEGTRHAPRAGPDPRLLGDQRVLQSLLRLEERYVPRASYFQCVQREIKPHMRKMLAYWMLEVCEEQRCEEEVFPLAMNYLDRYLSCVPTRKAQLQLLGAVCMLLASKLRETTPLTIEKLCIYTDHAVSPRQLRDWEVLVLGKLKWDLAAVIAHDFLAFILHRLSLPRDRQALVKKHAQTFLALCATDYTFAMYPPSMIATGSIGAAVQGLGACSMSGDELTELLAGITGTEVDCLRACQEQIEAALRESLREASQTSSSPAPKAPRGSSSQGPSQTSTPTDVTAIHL

MAP2K4 (human) = MAP2K4 (human) (UniProt P45985)
LCK (human) = LCK (human) (UniProt P06239)
MAPK11 (human) = MAPK11 (human) (UniProt Q15759)
Sequence of MAPK11 (human) (Q15759 whole entry, looked up): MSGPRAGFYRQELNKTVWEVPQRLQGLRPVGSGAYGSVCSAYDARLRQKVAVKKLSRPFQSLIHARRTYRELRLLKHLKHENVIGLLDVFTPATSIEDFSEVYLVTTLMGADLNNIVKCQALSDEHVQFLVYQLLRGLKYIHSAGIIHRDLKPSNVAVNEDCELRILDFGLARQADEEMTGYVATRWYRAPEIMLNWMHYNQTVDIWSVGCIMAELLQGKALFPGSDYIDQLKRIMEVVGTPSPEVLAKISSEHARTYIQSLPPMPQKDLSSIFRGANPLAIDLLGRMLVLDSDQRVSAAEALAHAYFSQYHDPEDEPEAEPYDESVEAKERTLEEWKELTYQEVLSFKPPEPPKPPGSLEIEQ

PAK2 (human) = PAK2 (human) (UniProt Q13177)
DDR1 (human) = DDR1 (human) (UniProt Q08345)
DSTYK (human) = DSTYK (human) (UniProt Q6XUX3)
MKNK2 (human) = MKNK2 (human) (UniProt Q9HBH9)
ANKK1 (human) = ANKK1 (human) (UniProt Q8NFD2)
MAPK8 (human) = MAPK8 (human) (UniProt P45983)
EPHB1 (human) = EPHB1 (human) (UniProt P54762)
CDKL2 (human) = CDKL2 (human) (UniProt Q92772)
SRPK3 (human) = SRPK3 (human) (UniProt Q9UPE1)
NLK (human) = NLK (human) (UniProt Q9UBE8)
MAPK6 (human) = MAPK6 (human) (UniProt Q16659)
GRK1 (human) = GRK1 (human) (UniProt Q15835)
[4] = test system: EGFR (human), P00533 [L858R]
TTK (human) = TTK (human) (UniProt P33981)

Sequence of SRPK2 (human) (P78362 whole entry, looked up): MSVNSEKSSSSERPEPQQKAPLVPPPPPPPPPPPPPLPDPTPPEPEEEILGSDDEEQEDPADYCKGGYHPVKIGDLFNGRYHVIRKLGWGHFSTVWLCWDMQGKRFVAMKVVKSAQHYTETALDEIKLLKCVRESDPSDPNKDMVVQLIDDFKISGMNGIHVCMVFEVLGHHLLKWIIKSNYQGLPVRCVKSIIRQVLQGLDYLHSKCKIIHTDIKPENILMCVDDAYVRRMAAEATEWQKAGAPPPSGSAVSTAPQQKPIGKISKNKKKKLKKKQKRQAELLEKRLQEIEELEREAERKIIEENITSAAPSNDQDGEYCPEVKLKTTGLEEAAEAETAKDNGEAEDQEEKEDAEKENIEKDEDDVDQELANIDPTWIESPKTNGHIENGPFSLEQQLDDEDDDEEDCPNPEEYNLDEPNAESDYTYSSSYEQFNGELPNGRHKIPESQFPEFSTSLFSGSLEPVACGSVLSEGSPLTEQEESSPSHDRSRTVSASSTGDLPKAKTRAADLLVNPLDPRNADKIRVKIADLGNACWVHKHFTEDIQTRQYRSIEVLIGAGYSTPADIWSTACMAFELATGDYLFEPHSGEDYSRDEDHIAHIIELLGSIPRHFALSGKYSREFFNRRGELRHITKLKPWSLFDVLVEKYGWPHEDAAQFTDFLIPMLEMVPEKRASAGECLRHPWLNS

For `CCN1CCN(Cc2ccc(NC(=O)c3ccc(C)c(/C=C/c4cnc5[nH]ccc5c4OC)c3)cc2C(F)(F)F)CC1`, the kinase still bound, per cent of control (EPHB6 (human)) was 1.8%, the kinase still bound, per cent of control (SRPK2 (human)) was 28% and the kinase still bound, per cent of control [1] was 36%. For the same compound, the kinase still bound, per cent of control [2] was 0.05%, the kinase still bound, per cent of control (CDC2L2 (human)) was 5.4% and the kinase still bound, per cent of control (PAK3 (human)) was 6%. It also gave a kinase still bound, per cent of control (MAP3K12 (human)) of 22%, a kinase still bound, per cent of control (BRSK1 (human)) of 100% and a kinase still bound, per cent of control (STK10 (human)) of 0%. It also gave a kinase still bound, per cent of control (MERTK (human)) of 9.2%, a kinase still bound, per cent of control (EIF2AK2 (human)) of 80% and a kinase still bound, per cent of control (MARK1 (human)) of 94%. The kinase still bound, per cent of control (MAPK13 (human)) was 22%, the kinase still bound, per cent of control (PLK4 (human)) was 59% and the kinase still bound, per cent of control (FGFR3 (human)) was 1.8%. The kinase still bound, per cent of control (IRAK4 (human)) was 48%, the kinase still bound, per cent of control (STK36 (human)) was 0.3% and the kinase still bound, per cent of control (MAPK4 (human)) was 100%. For the same compound, the kinase still bound, per cent of control (LYN (human)) was 0%, the kinase still bound, per cent of control (BMPR1A (human)) was 76% and the kinase still bound, per cent of control [3] was 0.05%. The kinase still bound, per cent of control (STK17B (human)) was 1%, the kinase still bound, per cent of control (CDK4 CCND3 (human)) was 73% and the kinase still bound, per cent of control (MAP2K4 (human)) was 76%. It also gave a kinase still bound, per cent of control (LCK (human)) of 0.15%, a kinase still bound, per cent of control (MAPK11 (human)) of 0% and a kinase still bound, per cent of control (PAK2 (human)) of 100%. For the same compound, the kinase still bound, per cent of control (DDR1 (human)) was 0.15%, the kinase still bound, per cent of control (DSTYK (human)) was 36% and the kinase still bound, per cent of control (MKNK2 (human)) was 2.7%. For the same compound, the kinase still bound, per cent of control (ANKK1 (human)) was 5.7%, the kinase still bound, per cent of control (MAPK8 (human)) was 19% and the kinase still bound, per cent of control (EPHB1 (human)) was 0.45%. For the same compound, the kinase still bound, per cent of control (CDKL2 (human)) was 1.6%, the kinase still bound, per cent of control (SRPK3 (human)) was 13% and the kinase still bound, per cent of control (NLK (human)) was 17%. For the same compound, the kinase still bound, per cent of control (MAPK6 (human)) was 100%, the kinase still bound, per cent of control (GRK1 (human)) was 96% and the kinase still bound, per cent of control [4] was 0.1%. The kinase still bound, per cent of control (TTK (human)) was 6.8%.
